Experimental findings from patent US11667602B2, “Compounds and their use” (AstraZeneca AB, priority 2020, dated 2023) are described below.

Holding throughout (format): in vitro ADME
The nature of series [1]: Human Plasma Protein Binding (Test B). Particulars: fraction unbound (fu). Summed up:
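Human plasma protein binding run per the published Wernevik et al. (2020) integrated DMPK panel protocol. Values are fraction unbound (fu, % free); repeat runs averaged arithmetically.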

Series [2] can be described thus: Human Liver Microsomal Stability (Test C). As to conditions: human, liver microsomes. Summed up: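 Human liver microsome incubation per the Wernevik et al. integrated DMPK panel protocol. Intrinsic clearance reported as CLint in μl/min/mg protein, averaged arithmetically over repeat runs.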
On the technique in general: Microsomes from liver hold many membrane-bound enzymes, among them those of drug oxidation.

Series [3] in a line: Rat Hepatocyte Stability (Test E). As to conditions: rat, hepatocytes, geometric mean if run multiple times. The procedure, abridged: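 Run per the published AstraZeneca-type rat hepatocyte stability protocol (Wernevik et al. panel). Values are mean intrinsic clearance, Clint in μl/min/10^6 cells; geometric mean used for repeated runs.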

Bounds are passed on as bounds.

As to `COc1cc(F)c(-c2ccc(C(=O)O)cc2)cc1C(=O)N[C@H]1[C@@H](C(=O)Nc2cccc(S(=O)(=O)C(F)(F)F)c2)[C@@H]2C=C[C@H]1C2` (single isomer, unassigned) [Example 552], the “Test B Human Plasma Protein Binding (% free)” value in series [1] was determined as 0.060 % free. In series [2], this compound gave a microsomal CLint of 7.2 µL/min/mg. The compound also came in with a hepatocyte CLint in series [3] of 16 µL/min/1e6 cells.

Turning to `COc1cc(F)c(O[C@H]2CC[C@@H](C(=O)O)CC2)cc1C(=O)N[C@@H]1[C@H]2CC[C@H](C2)[C@@H]1C(=O)Nc1ccc(F)c(S(F)(F)(F)(F)F)c1` [Example 433], in series [1], the “Test B Human Plasma Protein Binding (% free)” value worked out at 0.38 % free. Moreover, the microsomal CLint in series [2] came out at 43 µL/min/mg. The compound also registered a hepatocyte CLint in series [3] of 17 µL/min/1e6 cells.

With `COc1cc(F)c(O[C@H]2CC[C@@](C)(C(=O)O)CC2)cc1C(=O)N[C@@H]1[C@H]2CC[C@H](C2)[C@@H]1C(=O)Nc1ccc(F)c(S(F)(F)(F)(F)F)c1` [Example 353], the “Test B Human Plasma Protein Binding (% free)” value in series [1] is under 0.23 % free. For the same compound, the microsomal CLint in series [2] came out at 61 µL/min/mg. In addition, in series [3], the hepatocyte CLint turned out to be 23 µL/min/1e6 cells.

As to `COc1cc(F)c(O[C@H]2CC[C@@](C)(C(=O)O)CC2)cc1C(=O)N[C@@H]1[C@H]2CC[C@H](C2)[C@@H]1C(=O)Nc1cccc(S(=O)(=O)C(F)(F)F)c1` [Example 208, (1S,4s)-4-(2-Fluoro-4-methoxy-5-(((1S,2R,3S,4R)-3-((3-((trifluoromethyl)sulfonyl)phenyl)carbamoyl)bicyclo[2.2.1]heptan-2-yl)carbamoyl)phenoxy)-1-methylcyclohexane-1-carboxylic acid], the “Test B Human Plasma Protein Binding (% free)” value in series [1] came out at 1 % free. The microsomal CLint in series [2] is 54 µL/min/mg. For the same compound, the hepatocyte CLint in series [3] is 35 µL/min/1e6 cells.

Broadly, the microsomal CLint is the rate of metabolic loss divided by the concentration. In general, hepatocyte CLint refers to the capacity of the preparation to metabolise the compound, expressed as a volume cleared per time. Lower therefore signals slow turnover.
